Where “and” joins values, the source holds several entries; their conditions need not be identical. Equal values may be shown once. Entries after “also recorded” stand apart in the source; their conditions may differ.
Key:
P-selectin [1] = assay: Elisa of P-selectin binding to 2,3 sLex; settings: for IC50: Elisa, P-selectin 300 ng/ml, read-out: IC50 for inhibiting P-selectin binding to 2,3 sLex
Method: (§1) In addition to E-selectin binding, certain of the invention compounds were tested for their capacity to inhibit P-selectin binding to cancer cells, and to a chemical known to bind to P-selectin, 2,3 sLex. The following materials and procedures were used.
(§2) Compound Preparation. Compound (5) of Example 5, and compound (8) of Example 8 were solubilized in DMF to yield a 100 mM solution.
(§3) P-Selectin Detection Solutions. Goat F(ab')2 anti-human IgG (Fc spec.)biotin and streptavidin-AP were diluted 1:1000 in 1% BSA-TBS with 1 mM Ca. An Elisa assay was utilized to measure P-selectin binding to 2,3 sLex, and P-selectin was added at 300 ng/ml. An Elisa assay was also used to assay for the capacity of the invention compounds to inhibit cancer cell binding to P-selectin. HL-60 cancer cells were used, and P-selectin was added at 200 ng/ml.
(§4) Plate Preparation. 2,3 sLex was coated at 30 pmoles/well to Probind microtiter plates for Elisa. The glycolipid was added at 50 μl/well in 50% MeOH and allowed to evaporate overnight. Elisa plates and HL-60 assay plates were blocked with 5% BSA-TBS Ca^++ for more than an hour at room temperature. The plates were washed with TBS without Ca^++.
Assay. Briefly, the assays were conducted as follows. Compounds (5) and (8) were added to P-selectin detection solutions at 4, 2, 1, 0.5, 0.25 and 0.125 mM for the HL-60 based assay, and at 2, 1, 0.5, 0.25, 0.125 and 0.063 mM for the assay involving 2,3 sLex. DMF solutions were added directly to 1% BSA/TBS-Ca for dilutions through 0.5 mM. Lower concentrations were made in serial two-fold dilutions in BSA-TBS. These solutions were incubated at room temperature on a rotating platform for 1 hour, centrifuged to pellet particulate matter, and then added in triplicate for 2,3 sLex coated plates, or quadruplicate for HL-60 cells at 50 μl/well. An equal volume of HL-60 cells was added to wells for the cell based assay. The 2,3 sLex coated plates were incubated at 37° C. for 45 minutes, washed 3× with TBS, and 50 μl of substrate added to each well. […]

P-selectin [2] = assay: P-selectin binding to HL-60 cells; assay type: cell-based; settings: HL-60 assay; for IC50: P-selectin 200 ng/ml, read-out: IC50 for interfering with P-selectin binding to HL-60 cells
Method: as §1, §2, §3, §4
Cell Preparation. HL-60 cells were harvested by centrifugation, washed with TBS no Ca^++, counted, and the density adjusted to 2×10^6 /ml in 1% BSA-TBS Ca^++.
Assay. Briefly, the assays were conducted as follows. Compounds (5) and (8) were added to P-selectin detection solutions at 4, 2, 1, 0.5, 0.25 and 0.125 mM for the HL-60 based assay, and at 2, 1, 0.5, 0.25, 0.125 and 0.063 mM for the assay involving 2,3 sLex. DMF solutions were added directly to 1% BSA/TBS-Ca for dilutions through 0.5 mM. Lower concentrations were made in serial two-fold dilutions in BSA-TBS. These solutions were incubated at room temperature on a rotating platform for 1 hour, centrifuged to pellet particulate matter, and then added in triplicate for 2,3 sLex coated plates, or quadruplicate for HL-60 cells at 50 μl/well. An equal volume of HL-60 cells was added to wells for the cell based assay. The 2,3 sLex coated plates were incubated at 37° C. for 45 minutes, washed 3× with TBS, and 50 μl of substrate added to each well. Plates with HL-60 cells were incubated at 4° C. for 1 hour, the cells pelleted by centrifugation and washed 3× with TBS. For both assays, substrate was added at 75 μl/well. After color developed to an appropriate intensity, 50 μl/well was transferred to another plate for O.D. determination at 405 nm.

E-Selectin = E-Selectin chimera binding to fixed LS174T colon carcinoma cells; assay type: cell-based; settings: for IC50: lowest concentration from serial two-fold dilutions which inhibits by 50% or more relative to control, range, read-out: IC50 of Compound in Assay of E-Selectin Binding To Fixed LS174T Colon Carcinoma Cells (Range); for interference with cancer cell binding to E-selectin (in words): LS174T colon carcinoma cells
Method: Experiments were conducted to determine the capacity of the invention compounds to interfere with the binding of cancer cells to E-selectin. The compounds were dissolved in dimethylformamide (DMF) prior to being assayed. […] The mixture was rotated briskly on a rotary platform at room temperature for 30-60 minutes. Particulate matter was then removed by centrifugation, and the soluble fraction was transferred onto 96-well microtiter plates containing glutaraldehyde fixed LS174T colon carcinoma cells. […] Plates were developed in the dark and read at 405 nm. […] DMF (vehicle) typically had no effect. […] For all but 18-beta-glycyrrhetinic acid the compounds had low IC50 values, thus indicating their suitability for the treatment or prevention of certain forms of metastatic cancers.

[3] = tested on: arachidonic acid-induced ear swelling; assay: Arachidonic acid (AA) murine skin (ear) inflammation model, topical administration; assay type: in vivo; settings: for anti-inflammatory activity (in words): arachidonic acid murine skin inflammation model
Method: Using the arachidonic acid (AA), murine skin inflammation model, described by Harris, R. R. et al. (Skin Pharmacol (1990) 3:2940) the anti-inflammatory activity of 1-[3-O-(18-β-Glycyrrhetinic acid)]-2-(α-L-C-methylfucopyranose)-2',3'-propanediol (5) was tested. For comparison, 18-β-glycyrrhetinic acid was also tested. All compounds were dissolved at 100 mg/mL in methanol or chloroform (18-β-glycyrrhetinic acid) except compound (5) which was at 0.80 mg/mL. 10 μL of each compound was applied to the ear. AA was applied alone, or followed immediately with 1-[3-O-(18-β-Glycyrrhetinic acid)]-2-(α-L-C-methylfucopyranose)-2',3'-propanediol (5) or 18-β-glycyrrhetinic acid. 90 minutes later a 6 mm disk of each ear was removed and weighed.

5-Lipoxygenase [4] = biological target: T1, 5-Lipoxygenase (Rattus norvegicus, UniProt P12527); assay: Inhibition of 5-Lipoxygenase, crude enzyme preparation from rat basophilic leukemia cells (RBL-1); assay type: biochemical
T1 construct: crude enzyme preparation from rat basophilic leukemia cells (RBL-1); endogenous in cells; host or cells: RBL-1 (rat basophilic leukemia cells)
T1 sequence (P12527 1-673): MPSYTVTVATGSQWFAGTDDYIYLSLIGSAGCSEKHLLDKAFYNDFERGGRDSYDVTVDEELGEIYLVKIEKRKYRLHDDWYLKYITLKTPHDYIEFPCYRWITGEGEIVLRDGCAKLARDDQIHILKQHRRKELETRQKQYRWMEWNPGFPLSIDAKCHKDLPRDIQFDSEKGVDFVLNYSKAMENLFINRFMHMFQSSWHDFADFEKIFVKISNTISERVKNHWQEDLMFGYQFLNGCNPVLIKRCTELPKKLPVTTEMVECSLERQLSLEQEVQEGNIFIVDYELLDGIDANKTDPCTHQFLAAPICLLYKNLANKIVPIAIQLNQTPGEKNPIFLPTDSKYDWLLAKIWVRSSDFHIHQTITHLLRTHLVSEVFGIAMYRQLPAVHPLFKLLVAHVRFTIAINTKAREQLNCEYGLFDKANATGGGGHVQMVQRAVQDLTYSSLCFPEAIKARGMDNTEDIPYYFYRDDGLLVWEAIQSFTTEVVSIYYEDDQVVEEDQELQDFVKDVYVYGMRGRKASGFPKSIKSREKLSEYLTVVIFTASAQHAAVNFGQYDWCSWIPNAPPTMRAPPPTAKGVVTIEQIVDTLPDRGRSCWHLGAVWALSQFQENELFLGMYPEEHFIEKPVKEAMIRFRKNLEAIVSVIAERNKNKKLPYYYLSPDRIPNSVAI
Method: Thus, compounds that inhibit 5-lipoxygenase will have significant medical applications that require regulating or lowering leukotriene levels. Thus, the compounds of the instant invention were assayed for their capacity to inhibit 5-lipoxygenase. 5-Lipoxygenase assays were run using a crude enzyme preparation from rat basophilic leukemia cells (RBL-1) ([…]. and Samuelsson, B. Proc. Natl. Acad. Sci. […] W. and […]. Biol. Chem. (1985) 260:11554-11559). Test compounds were pre-incubated with the enzyme for 5 minutes at room temperature and the reaction is initiated by addition of substrate, […]. Following an 8 minute incubation at room temperature, the reaction was terminated by addition of NaOH, and absorbance read at 234 nm to determine levels of 5-HETE. Compounds were screened at 50 μM.

5-lipoxygenase [5] = settings: Sotomatsu et al. 1959; Inoue et al. 1986; cited from earlier work
[6] = J. Med. Chem. (1974) 17(2):184-191; cited from earlier work

C[C@@H]1O[C@@H](CC(=O)CO[C@H]2CC[C@]3(C)[C@H]4C(=O)C=C5[C@@H]6C[C@@](C)(C(=O)O)CC[C@]6(C)CC[C@@]5(C)[C@]4(C)CC[C@H]3C2(C)C)[C@@H](O)[C@H](O)[C@@H]1O [(8), 1-[3-O-(18-β-Glycyrrhetinic acid)]-2-oxo-2-(α-L-C-methylfucopyranose)-ethane]
IC50 (P-selectin [1]): ~125 µM | interference with P-selectin binding to HL-60 cells (in words) (P-selectin [2]): interfered with P-selectin binding to HL-60 cells in a dose dependent way | IC50 (P-selectin [2]): ~750 µM | IC50 (E-Selectin): 60 to 250 µM | anti-inflammatory activity (in words) [3]: activity similar to compounds (3) and (5); also recorded: significant anti-inflammatory activity

CC1(C)[C@@H](O)CC[C@]2(C)[C@H]3C(=O)C=C4[C@@H]5C[C@@](C)(C(=O)O)CC[C@]5(C)CC[C@@]4(C)[C@]3(C)CC[C@@H]12 [18-β-glycyrrhetinic acid]
inhibition at 100 µM (5-Lipoxygenase [4]): 36% | inhibition at 1000 µM (5-Lipoxygenase [4]): 81% | IC50 (E-Selectin): 125 to 500 µM

C[C@@H]1O[C@@H](CC(O)(CO)CO[C@H]2CC[C@]3(C)[C@H]4C(=O)C=C5[C@@H]6C[C@@](C)(C(=O)O)CC[C@]6(C)CC[C@@]5(C)[C@]4(C)CC[C@H]3C2(C)C)[C@@H](O)[C@H](O)[C@@H]1O (stereo partly drawn) [Compound (5), 1-[3-O-(18-β-Glycyrrhetinic acid)]-2-(α-L-C-methylfucopyranose)-2',3'-propanediol]
inhibition at 100 µM (5-Lipoxygenase [4]): 20% | inhibition at 1000 µM (5-Lipoxygenase [4]): 74% | inhibitory activity relative to glycyrrhizin (in words) (5-Lipoxygenase [4]; both concentrations tested): significantly greater inhibitory activity | inhibition of P-selectin binding to sLex (in words) (P-selectin [1]): did inhibit P-selectin binding to sLex, it was less effective than compound (8) | IC50 (P-selectin [1]): < 1000 µM and > 500 µM | interference with P-selectin binding to HL-60 cells (in words) (P-selectin [2]): interfered with P-selecting binding to HL-60 cells in a dose dependent manner, but was again less effective than compound (8) | IC50 (P-selectin [2]): ~2000 µM | interference with cancer cell binding to E-selectin (in words) (E-Selectin): markedly lower IC50 values relative to 18-beta-glycyrrhetinic acid | IC50 (E-Selectin): 60 to 125 µM | anti-inflammatory activity (in words) [3]: significant anti-inflammatory activity | percent inhibition of swelling caused by AA alone ([3]; topical, 10 μL of 0.80 mg/mL solution, 90 minutes): about 71% | % Inhibition of Swelling ([3]; topical, arachidonic acid ear model, 800 μg applied): 71.3%

CC1(C)[C@@H](O)CC[C@]2(C)[C@H]3C(=O)C=C4[C@@H]5C[C@@](C)(C(=O)O)CC[C@]5(C)CC[C@@]4(C)[C@]3(C)CC[C@@H]12 [Glycyrrhetinic acid]
inhibition of enzymes involved in leukotriene biosynthesis, including 5-lipoxygenase (in words) (5-lipoxygenase [5]): shown to inhibit enzymes involved in leukotriene biosynthesis, including 5-lipoxygenase activity

CC(CO[C@H]1CC[C@]2(C)[C@H]3C(=O)C=C4[C@@H]5C[C@@](C)(C(=O)O)CC[C@]5(C)CC[C@@]4(C)[C@]3(C)CC[C@H]2C1(C)C)C[C@@H]1O[C@@H](C)[C@@H](O)[C@@H](O)[C@@H]1O (stereo partly drawn) [(3), 1-[3-O-(18-β-Glycyrrhetinic acid)]-2-(α-L-C-methylfucopyranose)-propane]
interference with cancer cell binding to E-selectin (in words) (E-Selectin): markedly lower IC50 values relative to 18-beta-glycyrrhetinic acid | IC50 (E-Selectin): 60 to 125 µM | anti-inflammatory activity (in words) [3]: significant anti-inflammatory activity

CC1(C)[C@@H](O)CC[C@]2(C)[C@H]3CC=C4[C@@H]5C[C@@](C)(C(=O)O)CC[C@]5(C)CC[C@@]4(C)[C@]3(C)CC[C@@H]12 [11-Deoxoglycyrrhetinic acid]
aldosterone (DCA)-like activity (in words) [6]: does not substantially show the DCA activity of the parent compound

CC1(C)[C@@H](O[C@H]2O[C@H](C(=O)O)[C@@H](O)[C@H](O)[C@H]2O[C@@H]2O[C@H](C(=O)O)[C@@H](O)[C@H](O)[C@H]2O)CC[C@]2(C)[C@H]3C(=O)C=C4[C@@H]5C[C@@](C)(C(=O)O)CC[C@]5(C)CC[C@@]4(C)[C@]3(C)CC[C@@H]12 [Glycyrrhizin]
inhibition at 100 µM (5-Lipoxygenase [4]): 9% | inhibition at 1000 µM (5-Lipoxygenase [4]): 31%

— patent US5679644A, “Methods of treating diseases using triterpenoid acid derivatives” (Glycomed Incorporated, priority 1995, dated 1997)
